For 4 compounds, IC50 results are on record in patent publication US8263656B2 (Hoffmann-La Roche Inc., priority 2008, dated 2012).

SMILES strings stand for the structures. pIC50: −log10 of the molar value. Bounds are passed on as bounds.

In one assay the target is T1, human CRTH2 (Homo sapiens, UniProt Q9Y5Y4).
T1 construct: expressed in transfected cells
T1 sequence (Q9Y5Y4 1-395): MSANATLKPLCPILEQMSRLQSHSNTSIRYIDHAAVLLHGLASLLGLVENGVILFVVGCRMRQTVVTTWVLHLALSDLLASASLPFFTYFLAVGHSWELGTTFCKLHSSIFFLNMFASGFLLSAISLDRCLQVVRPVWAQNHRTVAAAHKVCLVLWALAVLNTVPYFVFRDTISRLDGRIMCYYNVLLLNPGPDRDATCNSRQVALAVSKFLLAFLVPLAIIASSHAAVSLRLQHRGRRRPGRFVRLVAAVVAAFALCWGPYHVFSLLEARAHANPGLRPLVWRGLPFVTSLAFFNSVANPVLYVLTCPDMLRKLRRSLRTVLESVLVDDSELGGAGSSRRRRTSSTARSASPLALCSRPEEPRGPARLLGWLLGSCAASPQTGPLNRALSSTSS
The assay is described as follows: Human CRTH2 Receptor Binding Assay (whole cell, [3H]ramatroban competition). Particulars: CHO-K1 cells expressing human CRTH2 and G-alpha16; 20 nM [3H]ramatroban; 1 hour, room temperature. The gist of the method: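 CHO-K1 cells stably expressing human CRTH2 and G-alpha16 (1.5×10^5 cells) incubated 1 h at room temperature with 20 nM [3H]ramatroban in PBS, 10 mM MgCl2, 0.06% BSA, then filtered and counted. Non-specific binding defined with 10 μM 15(R)-15-methyl PGD2; IC50 from 7-concentration 4-parameter logistic fit of specific-binding inhibition.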

For assay [1], the system named is DK-PGD2-induced IL-13 production in T helper type 2 (Th2) cells. The assay is described as follows: DK-PGD2-Induced IL-13 Production Assay in Th2 Cells. As to conditions: human Th2 cells, 500 nM DK-PGD2, 4 hrs at 37° C., ELISA; unit inferred; read-out: IC50 of inhibiting IL-13 production (values greater than 10). The format is cell-based. The procedure: Inhibition of 13,14-dihydro-15-keto Prostaglandin D2 (DK-PGD2)-induced IL-13 production in T helper type 2 (Th2) cells was applied to evaluate compound cellular potency.
Cultures of Th2 cells were established from blood of healthy human volunteers according to the following procedure. Peripheral blood mononuclear cells (PBMC) were first isolated from 50 mL of fresh blood by Ficoll-Hypaque density gradient centrifugation, followed by CD4^+ cell purification using a CD4^+ T Cell Isolation Kit II (from Miltenyi Biotec Inc.). The CD4^+ T cells were then differentiated to Th2 cells by culturing the cells in X-VIVO 15® medium (from Cambrex BioScience Walkersville Inc.) containing 10% human AB serum (serum of blood type AB from Invitrogen Corporation), 50 U/mL of recombinant human interleukin-2 (rhIL-2) (from PeproTech Inc.) and 100 ng/mL of recombinant human interleukin-4 (rhIL-4) (from PeproTech Inc.) for 7 days. The Th2 cells were isolated using a CD294 (CRTH2) MicroBead Kit (from Miltenyi Biotec Inc.) and amplified in X-VIVO 15® medium containing 10% human AB serum and 50 U/mL of rhIL-2 for 2 to 5 weeks. In general, 70% to 80% of the Th2 cells used in the assay are CRTH2-positive when analyzed by fluorescence-activated cell sorting using the BM16 antibody (as previously described) conjugated to phycoerythrin (PE).
The spontaneous production of IL-13 by Th2 cells was determined in the absence of DK-PGD2 stimulation and the value was subtracted from that in the presence of each compound for percent inhibition and IC50 calculations.
The percent inhibition of interleukin 13 (IL-13) production for a compound at various concentrations was calculated according to the following formula, [1-(IL-13 production in the presence of compound)/(IL-13 production in the presence of 0.15% DMSO)]×100. The IC50 value, defined as the concentration of a compound that is required for 50% inhibition of IL-13 production, was calculated by fitting the percent inhibition data for 7 concentrations to a sigmoidal dose-response (4 parameter logistic) model in the XLfit® software Excel add-in program [ID Business Solutions Ltd., model 205, where F(x)=(A+(B−A)/(1+((C/x)^D)))].

By pIC50 is commonly meant the negative decadic logarithm of the IC50, by convention in mol/L. As for `Cc1ccc2c(c1OCC(=O)O)CCCC2N(C)S(=O)(=O)c1cc(C(F)(F)F)cc(C(F)(F)F)c1` (centres unmarked) [Example 2-2, {5-[(3,5-Bis-trifluoromethyl-benzenesulfonyl)-methyl-amino]-2-methyl-5,6,7,8-tetrahydro-naphthalen-1-yloxy}-acetic acid], the values for the pIC50 (at human CRTH2; in assay [1]) were 6.51 and less than 5.00, respectively.
Regarding `CCc1ccc2c(c1OCC(=O)O)CCCC2N(C)S(=O)(=O)c1cc(C(F)(F)F)cc(C(F)(F)F)c1` (centres unmarked) [Example 2-3, {5-[(3,5-Bis-trifluoromethyl-benzenesulfonyl)-methyl-amino]-2-ethyl-5,6,7,8-tetrahydro-naphthalen-1-yloxy}-acetic acid], the pIC50 is 6.75 on human CRTH2 and less than 5.00 in assay [1].
In the case of `CN(C1CCCc2c1cc(Cl)c(F)c2OCC(=O)O)S(=O)(=O)c1ccc(Cl)cc1Cl` (centres unmarked) [Example 2-11, {3-Chloro-5-[(2,4-dichloro-benzenesulfonyl)-methyl-amino]-2-fluoro-5,6,7,8-tetrahydro-naphthalen-1-yloxy}-acetic acid], the negative logarithm of the IC50 (pIC50) on human CRTH2 was 6.27; in assay [1], less than 5.00.
For the compound `CN(C1CCCc2c(OCC(=O)O)cc(F)cc21)S(=O)(=O)c1ccc(Cl)cc1Cl` (centres unmarked) [Example 2-16], the values for the negative logarithm of the IC50 (pIC50) (on human CRTH2; in assay [1]) were 6.01 and less than 5.00, respectively.
